Experimental data from patent publication US20250296953A1, “3,4-THIAZOLO-STEROIDS AND METHODS OF MAKING AND USING THE SAME” (Arkansas State University - Jonesboro, priority 2018, published 2025).
Read-outs that look alike come from different tables or passages of the source.

Key:
glioblastoma (SF-295) = assay: NCI 60 five dose screen
NCI-H522 (NSCLC) = assay: NCI 60 one dose screen; assay type: cell-based, human; settings: Non-small Cell Lung Cancer
RPMI-8226 = assay: NCI 60 five dose screen; settings: Homo sapiens
[1] = system: 60 different human tumor cell lines; assay: NCI Development Therapeutics Program 60 cell line screen, one dose; assay type: cell-based
[2] = system: 60 different human tumor cell lines; assay: cells

## C[C@]12CCc3sc(Nc4ccc(F)cc4F)nc3C1=CC[C@@H]1[C@@H]2CC[C@]2(C)C(=O)CC[C@@H]12 [IIa.10, (1S,2R,13R,14S,18S)-7-(2,4-difluoroanilino)-2,18-dimethyl-6-thia-8-azapentacyclo[11.7.0.02,10.05,9.014,18]icosa-5(9),7,10-trien-17-one]
Glioblastoma (SF-295); Homo sapiens, SF-295, read-out: LC50
  CC50: > 100 µM
Glioblastoma (SF-295); SF-295 (CNS Cancer), five dose
  TGI: >1.00E−4
NCI-H522 (NSCLC)
  Growth Percent: 42.56%
RPMI-8226; RPMI-8226
  GI50: 1.88 µM
RPMI-8226; RPMI-8226, read-out: LC50
  CC50: > 100 µM
[1]; Breast Cancer, BT-549
  Growth Percent: 59.58%
[1]; Breast Cancer, HS 578T
  Growth Percent: 55.28%
[1]; Breast Cancer, MCF7
  Growth Percent: 14.62%
[1]; Breast Cancer, MDA-MB-231/ATCC
  Growth Percent: 76.10%
[1]; Breast Cancer, MDA-MB-468
  Growth Percent: 23.25%
[1]; Breast Cancer, T-47D
  Growth Percent: 48.94%
[1]; CNS Cancer, SF-268
  Growth Percent: 70.67%
[1]; CNS Cancer, SNB-19
  Growth Percent: 74.13%
[1]; CNS Cancer, SNB-75
  Growth Percent: 69.43%
[1]; CNS Cancer, U251
  Growth Percent: 40.73%
[1]; Colon Cancer, COLO 205
  Growth Percent: 54.33%
[1]; Colon Cancer, HCC-2998
  Growth Percent: 71.64%
[1]; Colon Cancer, HCT-116
  Growth Percent: −23.35%
[1]; Colon Cancer, HT29
  Growth Percent: 30.06%
[1]; Colon Cancer, KM12
  Growth Percent: 57.14%
[1]; Colon Cancer, SW-620
  Growth Percent: 7.16%
[1]; Leukemia, CCRF-CEM
  Growth Percent: 10.07%
[1]; Leukemia, HL-60(TB)
  Growth Percent: 21.35%
[1]; Leukemia, K-562
  Growth Percent: 2.15%
[1]; Leukemia, MOLT-4
  Growth Percent: 3.63%
[1]; Leukemia, RPMI-8226
  Growth Percent: −20.85%
[1]; Leukemia, SR
  Growth Percent: .71%
[1]; Melanoma, LOX IMVI
  Growth Percent: −49.65%
[1]; Melanoma, M14
  Growth Percent: 57.76%
[1]; Melanoma, MALME-3M
  Growth Percent: 69.51%
[1]; Melanoma, MDA-MB-435
  Growth Percent: 51.52%
[1]; Melanoma, SK-MEL-2
  Growth Percent: 76.42%
[1]; Melanoma, SK-MEL-5
  Growth Percent: 76.86%
[1]; Melanoma, SK-MEL-28
  Growth Percent: 84.36%
[1]; Melanoma, UACC-62
  Growth Percent: 67.65%
[1]; Melanoma, UACC-257
  Growth Percent: 71.94%
[1]; Non-small Cell Lung Cancer, A549/ATCC
  Growth Percent: 61.70%
[1]; Non-small Cell Lung Cancer, EKVX
  Growth Percent: 78.36%
[1]; Non-small Cell Lung Cancer, HOP-62
  Growth Percent: 87.08%
[1]; Non-small Cell Lung Cancer, HOP-92
  Growth Percent: 77.08%
[1]; Non-small Cell Lung Cancer, NCI-H23
  Growth Percent: 66.21%
[1]; Non-small Cell Lung Cancer, NCI-H226
  Growth Percent: 84.23%
[1]; Non-small Cell Lung Cancer, NCI-H322M
  Growth Percent: 84.48%
[1]; Non-small Cell Lung Cancer, NCI-H460
  Growth Percent: 60.86%
[1]; Ovarian Cancer, IGROV1
  Growth Percent: 62.11%
[1]; Ovarian Cancer, NCI/ADR-RES
  Growth Percent: 67.57%
[1]; Ovarian Cancer, OVCAR-3
  Growth Percent: −4.15%
[1]; Ovarian Cancer, OVCAR-4
  Growth Percent: 66.68%
[1]; Ovarian Cancer, OVCAR-5
  Growth Percent: 91.77%
[1]; Ovarian Cancer, OVCAR-8
  Growth Percent: 45.20%
[1]; Ovarian Cancer, SK-OV-3
  Growth Percent: 84.10%
[1]; Prostate Cancer, DU-145
  Growth Percent: 24.05%
[1]; Prostate Cancer, PC-3
  Growth Percent: 52.88%
[1]; Renal Cancer, 786-0
  Growth Percent: −27.72%
[1]; Renal Cancer, A498
  Growth Percent: 77.80%
[1]; Renal Cancer, ACHN
  Growth Percent: 37.67%
[1]; Renal Cancer, CAKI-1
  Growth Percent: 38.44%
[1]; Renal Cancer, RXF 393
  Growth Percent: 5.60%
[1]; Renal Cancer, SN12C
  Growth Percent: 64.13%
[1]; Renal Cancer, TK-10
  Growth Percent: 50.24%
[1]; Renal Cancer, UO-31
  Growth Percent: 42.87%
[2]; 60 cell, read-out: LC50
  CC50: > 100 µM
[2]; A498, read-out: LC50
  CC50: > 100 µM
[2]; A549, read-out: LC50
  CC50: > 100 µM
[2]; ACHN
  GI50: 1.81 µM
[2]; BT-549, read-out: LC50
  CC50: > 100 µM
[2]; CAKI-1, read-out: LC50
  CC50: > 100 µM
[2]; CCRF-CEM
  GI50: 2.64 µM
[2]; CCRF-CEM, read-out: LC50
  CC50: > 100 µM
[2]; DU-145
  GI50: 1.98 µM
[2]; EKVX, read-out: LC50
  CC50: > 100 µM
[2]; HCT-15
  GI50: 1.7 µM
[2]; HCT-15, read-out: LC50
  CC50: > 100 µM
[2]; HCT-116
  GI50: 1.67 µM
[2]; HL-60, read-out: LC50
  CC50: > 100 µM
[2]; HOP-62, read-out: LC50
  CC50: > 100 µM
[2]; HOP-92, read-out: LC50
  CC50: > 100 µM
[2]; HT-29
  GI50: 2.24 µM
[2]; HT-29, read-out: LC50
  CC50: > 100 µM
[2]; Hs-578T, read-out: LC50
  CC50: > 100 µM
[2]; IGROV-1, read-out: LC50
  CC50: > 100 µM
[2]; K562
  GI50: 2.43 µM
[2]; K562, read-out: LC50
  CC50: > 100 µM
[2]; LOX IMVI
  GI50: 1.71 µM
[2]; M14, read-out: LC50
  CC50: > 100 µM
[2]; MCF7, read-out: LC50
  CC50: > 100 µM
[2]; MDA-MB-231, read-out: LC50
  CC50: > 100 µM
[2]; MDA-MB-435, read-out: LC50
  CC50: > 100 µM
[2]; MDA-MB-468
  GI50: 1.75 µM
[2]; MOLT-4
  GI50: 2.44 µM
[2]; MOLT-4, read-out: LC50
  CC50: > 100 µM
[2]; Malme-3M, read-out: LC50
  CC50: > 100 µM
[2]; NCI-H23, read-out: LC50
  CC50: > 100 µM
[2]; NCI-H226
  GI50: 1.83 µM
[2]; NCI-H322M, read-out: LC50
  CC50: > 100 µM
[2]; NCI-H460, read-out: LC50
  CC50: > 100 µM
[2]; NCI-H522
  GI50: 1.84 µM
[2]; NCI/ADR-RES, read-out: LC50
  CC50: > 100 µM
[2]; OVCAR-3
  GI50: 1.9 µM
[2]; OVCAR-4, read-out: LC50
  CC50: > 100 µM
[2]; OVCAR-5, read-out: LC50
  CC50: > 100 µM
[2]; OVCAR-8
  GI50: 2.96 µM
[2]; OVCAR-8, read-out: LC50
  CC50: > 100 µM
[2]; RXF 393
  GI50: 1.57 µM
[2]; SF-268, read-out: LC50
  CC50: > 100 µM
[2]; SK-MEL-2, read-out: LC50
  CC50: > 100 µM
[2]; SK-MEL-5
  GI50: 1.88 µM
[2]; SK-OV-3, read-out: LC50
  CC50: > 100 µM
[2]; SN12C, read-out: LC50
  CC50: > 100 µM
[2]; SNB-19, read-out: LC50
  CC50: > 100 µM
[2]; SNB-75, read-out: LC50
  CC50: > 100 µM
[2]; SW-620
  GI50: 2.4 µM
[2]; SW-620, read-out: LC50
  CC50: > 100 µM
[2]; T47D
  GI50: 2.25 µM
[2]; T47D, read-out: LC50
  CC50: > 100 µM
[2]; TK-10
  GI50: 2.8 µM
[2]; TK-10, read-out: LC50
  CC50: > 100 µM
[2]; U-251, read-out: LC50
  CC50: > 100 µM
[2]; UACC-62, read-out: LC50
  CC50: > 100 µM
[2]; UACC-257, read-out: LC50
  CC50: > 100 µM
